Measured values published in PubChem BioAssay AID248 (DTP/NCI, 2004).
Where “and” joins values, the source holds several entries; their conditions need not be identical. Identical values can stand only once. Inconclusive results and toxic doses are left out. No stated cut-off is given here; in the data, active means T/C of 150% or more; inactive means T/C below 125%.

Test system: L1210 leukemia ip in BDF1 mice, survival T/C
Assay: NCI In Vivo Anticancer Drug Screen. Data for tumor model L1210 Leukemia (intraperitoneal) in B6D2F1 (BDF1) mice
Conditions: endpoint: mean survival time, higher = longer survival
Method in brief: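 Transplantable tumor model; survival measured in treated vs vehicle control mice. Value = treated/control.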

[1] = dose: 50.0 mg/kg/injection, schedule: Q04DX003 (ip), vehicle: Klucel (hydroxypropylcellulose) (HPC)
[2] = dose: 100.0 mg/kg/injection, schedule: Q04DX003 (ip), vehicle: Klucel (hydroxypropylcellulose) (HPC)
[3] = dose: 200.0 mg/kg/injection, schedule: Q04DX003 (ip), vehicle: Klucel (hydroxypropylcellulose) (HPC)
[4] = dose: 50.0 mg/kg/injection, schedule: Q01DX009 (ip), vehicle: saline
[5] = dose: 100.0 mg/kg/injection, schedule: Q01DX001 (ip), vehicle: saline
[6] = dose: 100.0 mg/kg/injection, schedule: Q01DX009 (ip), vehicle: saline
[7] = dose: 100.0 mg/kg/injection, schedule: Q04DX003 (ip), vehicle: saline
[8] = dose: 200.0 mg/kg/injection, schedule: Q01DX001 (ip), vehicle: saline
[9] = dose: 200.0 mg/kg/injection, schedule: Q01DX009 (ip), vehicle: saline
[10] = dose: 200.0 mg/kg/injection, schedule: Q04DX003 (ip), vehicle: saline
[11] = dose: 100.0 mg/kg/injection, schedule: Q01DX009 (ip), vehicle: Klucel (hydroxypropylcellulose) (HPC)
[12] = dose: 25.0 mg/kg/injection, schedule: Q01DX009 (ip), vehicle: Klucel (hydroxypropylcellulose) (HPC)
[13] = dose: 50.0 mg/kg/injection, schedule: Q01DX009 (ip), vehicle: Klucel (hydroxypropylcellulose) (HPC)
[14] = dose: 100.0 mg/kg/injection, schedule: Q01DX009 (ip), vehicle: saline with Tween-80
[15] = dose: 200.0 mg/kg/injection, schedule: Q01DX009 (ip), vehicle: saline with Tween-80
[16] = dose: 400.0 mg/kg/injection, schedule: Q01DX009 (ip), vehicle: saline with Tween-80
[17] = dose: 400.0 mg/kg/injection, schedule: Q01DX009 (ip), vehicle: saline
[18] = dose: 400.0 mg/kg/injection, schedule: Q04DX003 (ip), vehicle: saline
[19] = dose: 100.0 mg/kg/injection, schedule: Q04DX002 (ip), vehicle: Klucel (hydroxypropylcellulose) (HPC)
[20] = dose: 400.0 mg/kg/injection, schedule: Q01DX001 (ip), vehicle: saline
[21] = dose: 100.0 mg/kg/injection, schedule: Q01DX001 (ip), vehicle: carboxymethylcellulose (CMC)
[22] = dose: 400.0 mg/kg/injection, schedule: Q01DX001 (ip), vehicle: carboxymethylcellulose (CMC)

Measured: T/C

O=S(=O)(O)c1ccc2c(N=Nc3ccc(S(=O)(=O)N(CCCl)CCCl)cc3)c(O)c(S(=O)(=O)O)cc2c1
inactive: [1] 106 % of control | [2] 90 % of control | [3] 93 % of control

C[n+]1ccc(C=O)cc1
inactive: dose: 50.0 mg/kg/injection, schedule: Q01DX001 (ip), vehicle: saline 102 % of control | [4] 104 % of control and 109 % of control | dose: 50.0 mg/kg/injection, schedule: Q04DX003 (ip), vehicle: saline 103 % of control | [5] 105 % of control | [6] 102 % of control and 117 % of control | dose: 100.0 mg/kg/injection, schedule: Q04DX002 (ip), vehicle: saline 94 % of control and 107 % of control | [7] 101 % of control | [8] 105 % of control | [9] 106 % of control and 120 % of control | dose: 200.0 mg/kg/injection, schedule: Q04DX002 (ip), vehicle: saline 102 % of control and 104 % of control | [10] 94 % of control | dose: 400.0 mg/kg/injection, schedule: Q04DX002 (ip), vehicle: saline 98 % of control and 100 % of control

COc1cccc(/C(C)=N\Nc2ccc([N+](=O)[O-])cc2[N+](=O)[O-])c1OC
inactive: [4] 92 % of control | [6] 90 % of control | dose: 100.0 mg/kg/injection, schedule: Q04DX003 (ip), vehicle: saline with Tween-80 94 % of control and 96 % of control | dose: 200.0 mg/kg/injection, schedule: Q04DX003 (ip), vehicle: saline with Tween-80 87 % of control | dose: 400.0 mg/kg/injection, schedule: Q04DX003 (ip), vehicle: saline with Tween-80 86 % of control and 92 % of control

COc1cc(NC(=O)CC(C)=O)cc2c(C)cc(=O)n(C)c12
inactive: [11] 101 % of control | [2] 106 % of control | dose: 200.0 mg/kg/injection, schedule: Q01DX009 (ip), vehicle: Klucel (hydroxypropylcellulose) (HPC) 98 % of control | [3] 89 % of control | dose: 400.0 mg/kg/injection, schedule: Q01DX009 (ip), vehicle: Klucel (hydroxypropylcellulose) (HPC) 91 % of control | dose: 400.0 mg/kg/injection, schedule: Q04DX003 (ip), vehicle: Klucel (hydroxypropylcellulose) (HPC) 94 % of control

OC1CNCCc2ccccc21 (stereo not drawn)
inactive: [12] 102 % of control | [13] 103 % of control | [11] 94 % of control | [2] 92 % of control | [3] 88 % of control

O=C(O)CCCOc1ccc(Cl)cc1Cl
inactive: [14] 103 % of control | [15] 98 % of control | [16] 103 % of control

Nc1ccccc1CCCC(=O)O
inactive: [6] 95 % of control | [7] 104 % of control | [9] 90 % of control | [10] 98 % of control | [17] 105 % of control | [18] 93 % of control

CCC(C)c1ccc(O)c(CN(CCO)CCO)c1 (stereo not drawn)
inactive: [5] 105 % of control | [8] 101 % of control

COC1OC2COC(c3ccccc3)OC2C(N=[N+]=[N-])C1O (stereo not drawn)
inactive: dose: 100.0 mg/kg/injection, schedule: Q01DX001 (ip), vehicle: gum acacia 100 % of control | dose: 200.0 mg/kg/injection, schedule: Q01DX001 (ip), vehicle: gum acacia 97 % of control | dose: 400.0 mg/kg/injection, schedule: Q01DX001 (ip), vehicle: gum acacia 92 % of control

N#Cc1c(N)[n+]([O-])c2c([n+]1[O-])CCCC2
inactive: [19] 101 % of control | dose: 200.0 mg/kg/injection, schedule: Q04DX002 (ip), vehicle: Klucel (hydroxypropylcellulose) (HPC) 104 % of control | dose: 400.0 mg/kg/injection, schedule: Q04DX002 (ip), vehicle: Klucel (hydroxypropylcellulose) (HPC) 87 % of control

O=C(Nc1ccc([N+](=O)[O-])cc1)Oc1c(Cl)cc(Cl)c(Cl)c1[N+](=O)[O-]
inactive: dose: 25.0 mg/kg/injection, schedule: Q04DX002 (ip), vehicle: Klucel (hydroxypropylcellulose) (HPC) 112 % of control | dose: 50.0 mg/kg/injection, schedule: Q04DX002 (ip), vehicle: Klucel (hydroxypropylcellulose) (HPC) 97 % of control | [19] 94 % of control and 90 % of control

O=P(NCCCO)(Oc1ccccc1)N(CCCl)CCCl (stereo not drawn)
inactive: dose: 125.0 mg/kg/injection, schedule: Q01DX Z (ip), vehicle: saline 95 % of control | dose: 250.0 mg/kg/injection, schedule: Q01DX Z (ip), vehicle: saline 102 % of control | dose: 500.0 mg/kg/injection, schedule: Q01DX Z (ip), vehicle: saline 102 % of control

NCc1ccc([N+](=O)[O-])cc1
inactive: [4] 93 % of control | [5] 96 % of control | [6] 96 % of control | [7] 101 % of control | [8] 104 % of control | [9] 110 % of control | [10] 93 % of control

CC(=O)NC(C)C(C)(C)O (stereo not drawn)
inactive: [6] 101 % of control | [9] 98 % of control | [17] 103 % of control

Cc1ccc(Nc2nc(N)nc(N)c2N=O)cc1Cl
inactive: dose: 100.0 mg/kg/injection, schedule: Q01DX Z (ip), vehicle: methylcellulose (MC) 104 % of control | dose: 200.0 mg/kg/injection, schedule: Q01DX Z (ip), vehicle: methylcellulose (MC) 89 % of control

CC1=CC(=N\S(=O)(=O)c2ccccc2)/c2ccccc2/C1=N/S(=O)(=O)c1ccccc1
inactive: dose: 25.0 mg/kg/injection, schedule: Q01DX001 (ip), vehicle: saline sonified 92 % of control | dose: 50.0 mg/kg/injection, schedule: Q01DX001 (ip), vehicle: saline sonified 95 % of control | dose: 100.0 mg/kg/injection, schedule: Q01DX001 (ip), vehicle: saline sonified 95 % of control

CCCOc1ccc(=S)[nH]n1
inactive: [5] 103 % of control | [7] 101 % of control | [8] 95 % of control | [10] 106 % of control | [20] 98 % of control | [18] 95 % of control

C[n+]1ccc(/C=C\c2ccc3c(c2)OCO3)cc1
inactive: dose: 75.0 mg/kg/injection, schedule: Q01DX001 (ip), vehicle: saline 100 % of control

CC(=O)Nc1cccc2c1CCCC2
inactive: dose: 100.0 mg/kg/injection, schedule: Q01DX009 (ip), vehicle: gum acacia 98 % of control | dose: 100.0 mg/kg/injection, schedule: Q04DX003 (ip), vehicle: gum acacia 95 % of control | dose: 200.0 mg/kg/injection, schedule: Q01DX009 (ip), vehicle: gum acacia 97 % of control | dose: 200.0 mg/kg/injection, schedule: Q04DX003 (ip), vehicle: gum acacia 96 % of control | dose: 400.0 mg/kg/injection, schedule: Q01DX009 (ip), vehicle: gum acacia 103 % of control | dose: 400.0 mg/kg/injection, schedule: Q04DX003 (ip), vehicle: gum acacia 95 % of control

O=[N+]([O-])c1ccc(C2ON2C2CCCCC2)cc1 (stereo not drawn)
inactive: [21] 87 % of control | [22] 108 % of control

O=S(=O)(c1ccccc1)n1ccc2ccccc21
inactive: dose: 100.0 mg/kg/injection, schedule: Q04DX002 (ip), vehicle: saline with Tween-80 93 % of control | dose: 200.0 mg/kg/injection, schedule: Q04DX002 (ip), vehicle: saline with Tween-80 97 % of control | dose: 400.0 mg/kg/injection, schedule: Q04DX002 (ip), vehicle: saline with Tween-80 97 % of control

O=c1c2c(O)cccc2oc2cccc(O)c12
inactive: [14] 95 % of control | [15] 91 % of control | [16] 96 % of control

NNC(=O)c1ccccc1NCCO
inactive: [5] 101 % of control | [8] 97 % of control | [20] 101 % of control

C[n+]1ccsn1
inactive: [21] 95 % of control | dose: 200.0 mg/kg/injection, schedule: Q01DX001 (ip), vehicle: carboxymethylcellulose (CMC) 93 % of control | [22] 95 % of control

CCN(CC)CCCC(C)Nc1ccnc(/C=C/c2ccc(Br)cc2)c1 (stereo not drawn)
inactive: [12] 98 % of control | dose: 25.0 mg/kg/injection, schedule: Q04DX003 (ip), vehicle: Klucel (hydroxypropylcellulose) (HPC) 108 % of control | [13] 106 % of control | [1] 108 % of control and 88 % of control | [5] 93 % of control | [11] 97 % of control | [2] 97 % of control
